Laboratory results reported in patent US11337964B2, “Isoindoline derivative, pharmaceutical composition and use thereof” (Kangpu Biopharmaceuticals, Ltd., priority 2017, dated 2022).

Experiments:
Format in all cases: biochemical
Conditions in all cases: FAM-cAMP substrate, 30 minutes at room temperature
[1] = biological target: T1, PDE4A1A (Homo sapiens, UniProt P27815); test: PDE4 activity inhibition assay, PDE4A1A
T1 construct: purchased BPS 60040
Method: (§1) The IC50 value of the inhibitory effect of the compound on PDE4A1A, PDE4B1 and PDE4D3 was tested.
(§2) Positive compound: Trequinsin (Sigma, Cat. No. T2057).
(§3) Equipment: Wallac Victor Multi-label counter (Perkin Elmer).
(§4) I. Preparing 1× reaction liquid and termination liquid;
(§5) II. PDE enzymatic reaction; • 1) The PDE was dissolved in 1× reaction solution to form 2× enzyme solution. • 2) FAM-cAMP was dissolved in 1× reaction solution to form 2× substrate solution. • 3) Echo 550 was used to transfer the corresponding volume of the compound in DMSO solution to the reaction plate. • 4) 2× enzyme solution was added into the corresponding well of the reaction plate and incubated with the compound solution at room temperature for 15 minutes. • 5) 2× substrate solution was added into the corresponding well of the reaction plate to initiate the reaction. • 6) Reaction plate was incubated at room temperature for 30 minutes and terminated by adding termination liquid, then incubated at room temperature for 60 minutes.
(§6) The inhibition rate was calculated by Excel; IC50 was calculated by GraphPad Prism.

[2] = biological target: T2, PDE4B1 (Homo sapiens, UniProt Q07343); test: PDE4 activity inhibition assay, PDE4B1
T2 construct: purchased BPS 60041
Method: as §1, §2, §3, §4, §5, §6

[3] = biological target: T3, PDE4D3 (Homo sapiens, UniProt Q08499); test: PDE4 activity inhibition assay, PDE4D3
T3 construct: purchased BPS 60046
Method: as §1, §2, §3, §4, §5, §6

T2 sequence (Q07343 whole entry): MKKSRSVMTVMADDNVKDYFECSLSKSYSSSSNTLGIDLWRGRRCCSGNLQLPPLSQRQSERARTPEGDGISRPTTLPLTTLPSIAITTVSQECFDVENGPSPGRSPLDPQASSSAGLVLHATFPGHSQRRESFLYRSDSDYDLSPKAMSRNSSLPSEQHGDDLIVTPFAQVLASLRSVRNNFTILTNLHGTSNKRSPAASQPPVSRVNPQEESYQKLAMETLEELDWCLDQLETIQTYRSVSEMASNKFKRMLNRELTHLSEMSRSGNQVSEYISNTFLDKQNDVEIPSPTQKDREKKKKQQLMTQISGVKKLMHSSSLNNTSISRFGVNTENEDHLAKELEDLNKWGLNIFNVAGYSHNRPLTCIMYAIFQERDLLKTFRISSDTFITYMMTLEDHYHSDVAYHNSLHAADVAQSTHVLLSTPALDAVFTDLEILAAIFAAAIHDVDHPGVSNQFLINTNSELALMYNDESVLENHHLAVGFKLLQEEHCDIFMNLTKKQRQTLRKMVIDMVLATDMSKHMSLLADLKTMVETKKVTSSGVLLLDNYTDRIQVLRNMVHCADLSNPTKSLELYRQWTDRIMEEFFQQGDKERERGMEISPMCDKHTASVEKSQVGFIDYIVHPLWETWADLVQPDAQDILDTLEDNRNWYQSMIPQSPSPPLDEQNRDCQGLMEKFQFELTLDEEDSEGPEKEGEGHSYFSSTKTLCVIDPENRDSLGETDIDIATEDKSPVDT
T1 sequence (P27815 1-647 isoform P27815-4): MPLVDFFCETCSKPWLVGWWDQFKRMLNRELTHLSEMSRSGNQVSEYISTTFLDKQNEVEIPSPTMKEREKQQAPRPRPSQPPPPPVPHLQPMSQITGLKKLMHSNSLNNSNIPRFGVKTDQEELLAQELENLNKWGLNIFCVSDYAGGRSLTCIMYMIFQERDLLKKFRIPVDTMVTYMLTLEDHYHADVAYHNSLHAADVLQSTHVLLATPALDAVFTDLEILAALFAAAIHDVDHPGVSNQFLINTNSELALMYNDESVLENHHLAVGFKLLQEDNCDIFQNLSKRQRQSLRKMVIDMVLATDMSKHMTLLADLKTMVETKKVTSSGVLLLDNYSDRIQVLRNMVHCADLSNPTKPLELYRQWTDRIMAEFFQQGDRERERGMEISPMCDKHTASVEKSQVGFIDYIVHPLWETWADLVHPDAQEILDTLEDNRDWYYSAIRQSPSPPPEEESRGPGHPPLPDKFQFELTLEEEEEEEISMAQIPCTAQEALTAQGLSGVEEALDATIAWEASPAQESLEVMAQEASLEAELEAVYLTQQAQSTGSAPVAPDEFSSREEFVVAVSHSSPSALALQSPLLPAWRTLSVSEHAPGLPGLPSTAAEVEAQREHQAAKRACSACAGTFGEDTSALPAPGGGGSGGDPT
T3 sequence (Q08499 1-673 isoform Q08499-2): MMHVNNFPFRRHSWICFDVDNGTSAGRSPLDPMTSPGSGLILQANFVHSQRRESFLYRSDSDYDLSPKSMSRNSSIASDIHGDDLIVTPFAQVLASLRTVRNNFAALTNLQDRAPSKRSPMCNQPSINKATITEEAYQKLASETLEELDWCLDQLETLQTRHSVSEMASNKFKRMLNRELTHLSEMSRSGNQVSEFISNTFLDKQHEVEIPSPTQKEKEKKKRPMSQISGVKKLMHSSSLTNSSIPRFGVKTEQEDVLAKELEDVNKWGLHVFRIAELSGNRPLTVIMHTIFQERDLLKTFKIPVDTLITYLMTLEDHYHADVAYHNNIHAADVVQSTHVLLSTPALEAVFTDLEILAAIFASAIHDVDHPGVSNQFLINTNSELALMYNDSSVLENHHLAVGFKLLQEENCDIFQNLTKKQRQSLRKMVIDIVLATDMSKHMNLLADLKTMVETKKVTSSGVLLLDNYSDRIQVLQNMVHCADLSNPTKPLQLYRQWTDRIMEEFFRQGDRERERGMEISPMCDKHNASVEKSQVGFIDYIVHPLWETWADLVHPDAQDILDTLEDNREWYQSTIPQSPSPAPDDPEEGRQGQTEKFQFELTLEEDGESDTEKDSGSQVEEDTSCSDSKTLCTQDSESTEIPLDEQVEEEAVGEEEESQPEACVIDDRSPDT

SMILES | IC50 [1] [nM] | IC50 [2] [nM] | IC50 [3] [nM]
CCOc1cc([C@@H](CS(C)(=O)=O)N2C(=O)c3c(F)ccc(NC(C)=O)c3C2=O)ccc1OC [Compound 102, (S)—N-(2-(1-(3-ethoxy-4-methoxyphenyl)-2-(methylsulfonyl)ethyl)-7-fluoro-1,3-dioxoisoindolin-4-yl)acetamide] | 11 | 14 | 7.4
CCOc1nc(C(CS(C)(=O)=O)N2C(=O)c3cccc(NS(C)(=O)=O)c3C2=O)ccc1OC (stereo not drawn) [Compound 737, N-(2-(1-(6-ethoxy-5-methoxypyridin-2-yl)-2-(methylsulfonyl)ethyl)-1,3-dioxoisoindolin-4-yl)methanesulfonamide] | 51.8 | 136 | 35.9
[2H]C([2H])([2H])Oc1ccc([C@H](CS(C)(=O)=O)N2C(=O)c3c(F)ccc(NC(C)=O)c3C2=O)cc1OCC [Compound 104, (R)—N-(2-(1-(3-ethoxy-4-d3-methoxyphenyl)-2-(methylsulfonyl)ethyl)-7-fluoro-1,3-dioxoisoindolin-4-yl)acetamide] | 53 | 70 | 31
CCOc1cc([C@@H](CS(C)(=O)=O)N2C(=O)c3cncc(NC(C)=O)c3C2=O)ccc1OC [Compound 502, (S)—N-(2-(1-(3-ethoxy-4-methoxyphenyl)-2-(methylsulfonyl)ethyl)-1,3-dioxo-2,3-dihydro-1H-pyrrolo[3,4-c]pyridin-7-yl)acetamide] | 206 | 513 | 107
CCOc1cc(C(CS(C)(=O)=O)N2C(=O)c3c(F)ccc(NC(C)=O)c3C2=O)ccc1OC (stereo not drawn) [Compound 101, N-(2-(1-(3-ethoxy-4-methoxyphenyl)-2-(methylsulfonyl)ethyl)-7-fluoro-1,3-dioxoisoindolin-4-yl)acetamide] | 17 | 27 | 12
CCOc1nc(C(CS(C)(=O)=O)N2C(=O)c3cccc(NC(=O)CO)c3C2=O)ccc1OC (stereo not drawn) [Compound 739, N-(2-(1-(6-ethoxy-5-methoxypyridin-2-yl)-2-(methylsulfonyl)ethyl)-1,3-dioxoisoindolin-4-yl)-2-hydroxyacetamide] | 14.5 | 36.3 | 10.9
[2H]C([2H])([2H])Oc1ccc([C@H](CS(C)(=O)=O)N2C(=O)c3cc(F)cc(NC(C)=O)c3C2=O)cc1OC([2H])([2H])[2H] [Compound 206, (R)—N-(2-(1-(3,4-d6-dimethoxyphenyl)-2-(methylsulfonyl)ethyl)-6-fluoro-1,3-dioxoisoindolin-4-yl)acetamide] | 1460 | 1350 | 997
CCOc1cc([C@@H](CS(C)(=O)=O)N2C(=O)c3ccc(F)c(NC(C)=O)c3C2=O)ccc1OC [Compound 302, (S)—N-(2-(1-(3-ethoxy-4-methoxyphenyl)-2-(methylsulfonyl)ethyl)-5-fluoro-1,3-dioxoisoindolin-4-yl)acetamide] | 33 | 41 | 22

Molecules with a lower IC50 [1], results first:

IC50 [1] [nM] | IC50 [2] [nM] | IC50 [3] [nM] | SMILES
2.5 | 4.5 | 1.8 | CCOc1nc(C(CS(C)(=O)=O)N2C(=O)c3c(F)ccc(NC(=O)CC(C)C)c3C2=O)ccc1OC (stereo not drawn) [Compound 757, N-(2-(1-(6-ethoxy-5-methoxypyridin-2-yl)-2-(methylsulfonyl)ethyl)-7-fluoro-1,3-dioxoisoindolin-4-yl)-3-methylbutanamide]
8.3 | 12 | 4.6 | [2H]C([2H])([2H])Oc1ccc([C@@H](CS(C)(=O)=O)N2C(=O)c3c(F)ccc(NC(C)=O)c3C2=O)cc1OC([2H])([2H])C([2H])([2H])[2H] [Compound 107, (S)—N-(2-(1-(3-d5-ethoxy-4-d3-methoxyphenyl)-2-(methylsulfonyl)ethyl)-7-fluoro-1,3-dioxoisoindolin-4-yl)acetamide]
2.4 | 6.2 | 2.6 | CCOc1nc(C(CS(C)(=O)=O)N2C(=O)c3cccc(NC(=O)COCc4ccccc4)c3C2=O)ccc1OC (stereo not drawn) [Compound 742, 2-(benzyloxy)-N-(2-(1-(6-ethoxy-5-methoxypyridin-2-yl)-2-(methylsulfonyl)ethyl)-1,3-dioxoisoindolin-4-yl)acetamide]
2.3 | 5.7 | 3.1 | [2H]C([2H])([2H])Oc1ccc([C@@H](CS(C)(=O)=O)N2C(=O)c3cc(F)cc(NC(C)=O)c3C2=O)nc1OCC [Compound 724, (S)—N-(2-(1-(6-ethoxy-5-d3-methoxypyridin-2-yl)-2-(methylsulfonyl)ethyl)-6-fluoro-1,3-dioxoisoindolin-4-yl)acetamide]
1.1 | 5.1 | 2 | [2H]C([2H])([2H])Oc1ccc([C@@H](CS(C)(=O)=O)N2C(=O)c3cccc(NC(C)=O)c3C2=O)nc1OCC [Compound 711, (S)—N-(2-(1-(6-ethoxy-5-d3-methoxypyridin-2-yl)-2-(methylsulfonyl)ethyl)-1,3-dioxoisoindolin-4-yl)acetamide]
5.6 | 17.8 | 13 | CCOc1nc([C@@H](CS(C)(=O)=O)N2C(=O)c3cc(C#N)cc(NC(C)=O)c3C2=O)ccc1OC [Compound 734, (S)—N-(6-cyano-2-(1-(6-ethoxy-5-methoxypyridin-2-yl)-2-(methylsulfonyl)ethyl)-1,3-dioxoisoindolin-4-yl)acetamide]
1.6 | 1.8 | 1.5 | CCOc1nc([C@@H](CS(C)(=O)=O)N2C(=O)c3cccc(NC(=O)C4CC4)c3C2=O)ccc1OC [Compound 770, (S)—N-(2-(1-(6-ethoxy-5-methoxypyridin-2-yl)-2-(methylsulfonyl)ethyl)-1,3-dioxoisoindolin-4-yl)cyclopropanecarboxamide]
1.1 | 2.6 | 1.2 | CCOc1nc(C(CS(C)(=O)=O)N2C(=O)c3c(F)ccc(NC(=O)COC)c3C2=O)ccc1OC (stereo not drawn) [Compound 745, N-(2-(1-(6-ethoxy-5-methoxypyridin-2-yl)-2-(methylsulfonyl)ethyl)-7-fluoro-1,3-dioxoisoindolin-4-yl)-2-methoxyacetamide]
2.1 | 5.1 | 1.3 | [2H]C([2H])([2H])Oc1ccc([C@@H](CS(C)(=O)=O)N2C(=O)c3c(Cl)ccc(NC(C)=O)c3C2=O)cc1OCC [Compound 113, (S)—N-(7-chloro-2-(1-(3-ethoxy-4-d3-methoxyphenyl)-2-(methylsulfonyl)ethyl)-1,3-dioxoisoindolin-4-yl)acetamide]
3.4 | 7 | 0.9 | CCOc1cc(C(CS(C)(=O)=O)N2C(=O)c3c(F)ccc(NC(C)=O)c3C2=O)ccc1OC(F)F (stereo not drawn) [Compound 121, N-(2-(1-(4-(difluoromethoxy)-3-ethoxyphenyl)-2-(methylsulfonyl)ethyl)-7-fluoro-1,3-dioxoisoindolin-4-yl)acetamide]
1.3 | 4.3 | 1.9 | CCOc1cc([C@@H](CS(C)(=O)=O)N2C(=O)c3c(Cl)ccc(NC(C)=O)c3C2=O)ccc1OC [Compound 111, (S)—N-(7-chloro-2-(1-(3-ethoxy-4-methoxyphenyl)-2-(methylsulfonyl)ethyl)-1,3-dioxoisoindolin-4-yl)acetamide]
